Read-outs that look alike come from different tables or passages of the source.
Columns and labels:
[1] = molecular target: T1, tubulin (Sus scrofa, UniProt P02550+P02554); experiment: Evaluation of the inhibition of tubulin polymerization (turbidimetry); format: biochemical, pig; conditions: tubulin 10 μm (1 mg/ml), 37° C., turbidity at 350 nm; concentration that inhibits the rate of polymerization by 50%; read-out: Inhibition of tubulin polymerization IC 50 (μm)
T1 construct: Tubulin is purified from pig brain according to published methods; from tissue; host or cells: pig brain
T1 sequence (P02550 whole entry): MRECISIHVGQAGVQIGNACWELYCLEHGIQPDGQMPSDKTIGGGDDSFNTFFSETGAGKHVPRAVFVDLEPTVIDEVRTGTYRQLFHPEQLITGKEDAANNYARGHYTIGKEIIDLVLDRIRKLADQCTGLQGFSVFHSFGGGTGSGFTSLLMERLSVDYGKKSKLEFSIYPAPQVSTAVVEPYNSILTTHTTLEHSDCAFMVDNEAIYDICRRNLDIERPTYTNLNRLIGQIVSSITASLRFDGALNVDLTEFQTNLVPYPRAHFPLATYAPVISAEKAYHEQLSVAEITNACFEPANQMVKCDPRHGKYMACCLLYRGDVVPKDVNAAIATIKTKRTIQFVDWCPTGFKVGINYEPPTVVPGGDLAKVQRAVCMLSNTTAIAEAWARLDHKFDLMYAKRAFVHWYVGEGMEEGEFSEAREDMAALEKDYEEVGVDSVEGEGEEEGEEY
T1 sequence (P02554 whole entry): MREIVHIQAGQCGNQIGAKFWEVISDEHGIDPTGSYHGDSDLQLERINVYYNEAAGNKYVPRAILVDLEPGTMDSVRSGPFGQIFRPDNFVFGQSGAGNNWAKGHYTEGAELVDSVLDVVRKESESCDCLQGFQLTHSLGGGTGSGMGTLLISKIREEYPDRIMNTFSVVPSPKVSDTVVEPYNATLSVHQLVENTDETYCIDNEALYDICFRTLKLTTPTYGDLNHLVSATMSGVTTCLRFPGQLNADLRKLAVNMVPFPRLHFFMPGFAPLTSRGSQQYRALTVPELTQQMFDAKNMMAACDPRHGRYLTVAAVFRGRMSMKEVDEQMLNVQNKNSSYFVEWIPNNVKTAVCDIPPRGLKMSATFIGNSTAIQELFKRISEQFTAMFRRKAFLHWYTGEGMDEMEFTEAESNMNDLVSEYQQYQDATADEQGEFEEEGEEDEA
Experimental: Tubulin is purified from pig brain according to published methods (Shelanski et al., 1973, Proc. Natl. Acad. Sci. USA, 70, 765-768. Weingarten et al., 1975, Proc. Natl. Acad. Sci. USA, 72, 1858-1862). Briefly, the brains are ground and centrifuged in an extraction buffer. The tubulin contained in the supernatant of the extract undergoes two successive cycles of polymerization at 37° C. and depolymerization at 4° C., before being separated from the MAPs (Microtubule Associated Proteins) by chromatography on a phosphocellulose P11 column (Whatman). The tubulin thus isolated is more than 95% pure. It is stored in a buffer known as RB/2 30% glycerol, the composition of which is 50 mM MES-NaOH [2-(N-morpholino)ethanesulfonic acid], pH 6.8; 0.25 mM MgCl2; 0.5 mM EGTA; 30% glycerol (v/v), 0.2 mM GTP (guanosine-5′-triphosphate).
The polymerization of tubulin to microtubules is monitored by turbidimetry as follows: the tubulin is adjusted to a concentration of 10 μm (1 mg/ml) in RB/2 30% glycerol buffer to which 1 mM GTP and 6 mM MgCl2 are added. The polymerization is triggered by an increase in temperature from 6° C. to 37° C. in a cuvette with an optical path length of 1 cm, placed in a UVIKON 931 spectrophotometer (Kontron) equipped with a thermostatically maintained cuvette holder. The increase in the turbidity of the solution is monitored at 350 nm.
The products are dissolved at 10 mM in DMSO and added at variable concentrations (0.5 to 10 μm) to the tubulin solution before polymerization. The IC50 value is defined as the concentration of product that inhibits the rate of polymerization by 50%.

[2] = system: HCT116 cells; experiment: Inhibition of proliferation of the human colon tumor line HCT116 ([14C]-thymidine incorporation); format: cell-based; conditions: 48 hours at 37° C., read-out: Inhibition of HCT116 proliferation IC 50 (μm)
Experimental: The proliferation of HCT116 cells is evaluated by measuring the incorporation of [^14C]-thymidine in the following manner. The HCT 116 cells (obtained from the ATCC) are cultured in a DMEM medium (Gibco) containing 10% fetal calf serum and antibiotics (1% penicillin, 1% streptomycin). To perform the proliferation test, the cells are inoculated in cytostar 96-well microplates (Amersham), at a rate of 5000 cells per well. [^14C]-thymidine (0.1 μCi/well) and the products to be evaluated are then added. Variable concentrations of products up to 10 μm are used; the DMSO (solvent used to dissolve the products) should not exceed 0.5% in the medium. 48 hours after incubation at 37° C., the radioactivity incorporated into the cells is measured by counting the plate in a TRI-LUX counter (Wallac). The IC50 is defined as the concentration of product that reduces the radioactivity by 50% compared with an untreated control. A product whose IC50 is less than 3 μm is considered cytotoxic.

Row | Compound | IC50 [1] | IC50 ([2]; Homo sapiens, HCT-116, 48 h) | IC50 [2]
1 | COc1cccc(N2CCN(C(=O)c3cc(C)nn3-c3cccc(F)c3)CC2)c1 [3/96] | 1800 nM | 3.6 nM | 
2 | COc1cccc(N2CCN(C(=O)c3cc(C)nn3-c3ccc(F)cc3)CC2)c1 [3/63] | 900 nM | 19 nM | 
3 | Cc1cc(C(=O)N2CCN(c3cccc(C)c3C)CC2)n(-c2ccccc2F)n1 [3/141] | 7000 nM | 66 nM | 
4 | Cc1cc(C(=O)N2CCN(c3cccc(C)c3C)CC2)n(-c2ccccc2)n1 [3/9] | 7000 nM | 494 nM | 
5 | Cc1cccc(N2CCN(C(=O)c3cc(C)nn3-c3ccccc3F)CC2)c1 [3/16] | 6000 nM | 224 nM | 
6 | Cc1cc(C(=O)N2CCN(c3ccc4c(c3)OCCO4)CC2)n(-c2ccc(F)cc2)n1 [3/62] | 6000 nM | 71 nM | 
7 | CCOc1ccccc1N1CCN(C(=O)c2cc(C)nn2-c2cccc(Cl)c2)CC1 [3/71] | 2500 nM | 220 nM | 
8 | Cc1ccc(-n2nc(C)cc2C(=O)N2CCN(c3cccc(C(F)(F)F)c3)CC2)cc1 [3/131] | 3100 nM | 135 nM | 
9 | Cc1cccc(-n2nc(C)cc2C(=O)N2CCN(c3ccccc3C(F)(F)F)CC2)c1 [3/55] | 5500 nM | 1350 nM | 
10 | COc1ccc(Cl)cc1N1CCN(C(=O)c2cc(C)nn2-c2ccccc2F)CC1 [3/88] | 6000 nM | 60.5 nM | 
11 | Cc1cc(C(=O)N2CCN(c3ccc(C)c(C)c3)CC2)n(-c2ccccc2F)n1 [3/86] | 12500 nM | 385 nM | 
12 | CCOc1ccccc1N1CCN(C(=O)c2cc(C)nn2-c2ccccc2)CC1 [3/43] | 9000 nM | 229 nM | 
13 | COc1ccc(-n2nc(C)cc2C(=O)N2CCN(c3cccc(Cl)c3Cl)CC2)cc1 [3/106] | 7000 nM | 985 nM | 
14 | Cc1cc(C(=O)N2CCN(c3cccc(C(F)(F)F)c3)CC2)n(-c2ccccc2)n1 [3/8] | 6500 nM | 841 nM | 
15 | Cc1cc(C(=O)N2CCN(c3ccccc3)CC2)n(-c2cccc(Cl)c2)n1 [3/40] | 3000 nM | 775 nM | 
16 | COc1cccc(N2CCN(C(=O)c3cc(C)nn3-c3cccc(Cl)c3)CC2)c1 [3/25] | 1800 nM | 40 nM | 

Row | Compound | IC50 [1] | IC50 ([2]; Homo sapiens, HCT-116, 48 h) | IC50 [2]
17 | Cc1cc(C(=O)N2CCN(c3cccc(C(F)(F)F)c3)CC2)n(-c2ccc(Cl)cc2)n1 [3/72] | 7000 nM | 143 nM | 
18 | CCOc1ccccc1N1CCN(C(=O)c2cc(C)nn2-c2cccc(F)c2)CC1 [3/98] | 7000 nM | 157 nM | 
19 | CSc1ccccc1N1CCN(C(=O)c2cc(C)nn2-c2cccc(F)c2)CC1 [3/97] | 3000 nM | 83 nM | 
20 | Cc1cc(C(=O)N2CCN(c3ccc(Cl)c(Cl)c3)CC2)n(-c2ccc(F)cc2)n1 [3/146] | 1300 nM | 43 nM | 
21 | Cc1cc(C(=O)N2CCN(c3cccc4ccccc34)CC2)n(-c2ccccc2F)n1 [3/143] | 2500 nM | 140 nM | 
22 | Cc1cc(C(=O)N2CCN(c3cccc(F)c3)CC2)n(-c2ccccc2)n1 [3/152] | 800 nM | 6.3 nM | 
23 | Cc1cccc(-n2nc(C)cc2C(=O)N2CCN(c3cc(Cl)ccc3C)CC2)c1 [3/53] | 1200 nM | 52 nM | 
24 | COc1ccc(Cl)cc1N1CCN(C(=O)c2cc(C)nn2-c2cccc(F)c2)CC1 [3/22] | 1500 nM | 46 nM | 
25 | Cc1cc(C(=O)N2CCN(c3ccc(C(F)(F)F)cc3)CC2)n(-c2cccc(Cl)c2)n1 [3/126] |  | 8740 nM | 
26 | CCc1ccccc1N1CCN(C(=O)c2cc(C)nn2-c2ccccc2F)CC1 [3/142] | 3800 nM | 110 nM | 
27 | COc1cccc(-n2nc(C)cc2C(=O)N2CCN(c3ccc(C)c(C)c3)CC2)c1 [3/2] |  | 312 nM | 
28 | COc1ccccc1N1CCN(C(=O)c2cc(C)nn2-c2ccccc2F)CC1 [3/85] |  | 189 nM | 
29 | COc1ccccc1N1CCN(C(=O)c2cc(C)nn2-c2ccccc2F)CC1 [3/144] |  |  | 255 nM
30 | COc1ccccc1N1CCN(C(=O)c2cc(C)nn2-c2cccc(Cl)c2)CC1 [3/120] |  | 40 nM | 
31 | Cc1cc(C(=O)N2CCN(c3ccc(Cl)c(Cl)c3)CC2)n(-c2ccccc2)n1 [3/110] |  | 299 nM | 
32 | COc1ccc(-n2nc(C)cc2C(=O)N2CCN(c3cccc(Cl)c3)CC2)cc1 [3/39] |  | 734 nM | 

The next lines start with the values.

Row | IC50 [1] | IC50 ([2]; Homo sapiens, HCT-116, 48 h) | IC50 [2] | Compound
33 | 1550 nM | 6.6 nM |  | Cc1cc(C(=O)N2CCN(c3ccc(F)c(Cl)c3)CC2)n(-c2ccccc2)n1 [Example E72, [4-(3-Chloro-4-fluorophenyl)piperazin-1-yl](5-methyl-2-phenyl-2H-pyrazol-3-yl)methanone]
34 | 4000 nM | 19.6 nM |  | Cc1cc(C(=O)N2CCN(c3cccc(Cl)c3)CC2)n(-c2ncccc2C#N)n1 [Example E38, 2-{5-[4-(3-Chlorophenyl)piperazine-1-carbonyl]-3-methylpyrazol-1-yl}nicotinonitrile]
35 | 900 nM | 2 nM |  | COc1cc(OC)cc(N2CCN(C(=O)c3cc(/C=N/O)nn3-c3ccccc3)CC2)c1 [Example E94, 5-[4-(3,5-Dimethoxyphenyl)piperazine-1-carbonyl]-1-phenyl-1H-pyrazole-3-carboxaldehyde oxime E]
36 | < 25000 nM | 3240 nM |  | Cc1cc(C(=O)N2CCN(c3nccs3)CC2)n(-c2ccccc2)n1 [Example E115]
37 | 1160 nM | 1 nM |  | COc1cc(OC)cc(N2CCN(C(=O)c3ccnn3-c3ccccc3)CC2)c1 [Example E92, [4-(3,5-Dimethoxyphenyl)piperazin-1-yl](2-phenyl-2H-pyrazol-3-yl)methanone]
38 | 3000 nM | 120 nM |  | Cc1cc(C(=O)N2CCN(c3cccc(NC(=O)CCO)c3)CC2)n(-c2ccccc2)n1 [Example E128, 3-Hydroxy-N-{3-[4-(5-methyl-2-phenyl-2H-pyrazole-3-carbonyl)piperazin-1-yl]-phenyl}propionamide]
39 | 1600 nM | 118 nM |  | Cc1cc(C(=O)N2CCN(c3cccc(C(=O)NCCO)c3)CC2)n(-c2ccccc2)n1 [Example E40, N-(2-Hydroxyethyl)-3-[4-(5-methyl-2-phenyl-2H-pyrazole-3-carbonyl)piperazin-1-yl]benzamide]
40 | 1300 nM | 10.8 nM |  | O=Cc1cc(C(=O)N2CCN(c3cccc(Cl)c3)CC2)n(-c2ccccc2)n1 [Example E70, 5-[4-(3-Chlorophenyl)piperazine-1-carbonyl]-1-phenyl-1H-pyrazole-3-carboxaldehyde]
41 | 9500 nM | 198 nM |  | Cc1cc(C(=O)N2CCN(c3ccccc3)CC2)n(-c2ccccn2)n1 [Example E21, (5-Methyl-2-pyrid-2-yl-2H-pyrazol-3-yl)(4-phenylpiperazin-1-yl)methanone]
42 | 1200 nM | 59.5 nM |  | CC(=O)Nc1cccc(N2CCN(C(=O)c3cc(C)nn3-c3ccccc3)CC2)c1 [Example E18, N-{3-[4-(5-methyl-2-phenyl-2H-pyrazole-3-carbonyl)piperazin-1-yl]phenyl}-acetamide]
43 | 3600 nM | 1340 nM |  | N#Cc1cccc(-n2nc(C(F)(F)F)cc2C(=O)N2CCN(c3cccc(Cl)c3)CC2)c1 [Example E55, 3-{5-[4-(3-Chlorophenyl)piperazine-1-carbonyl]-3-trifluoromethylpyrazol-1-yl}benzonitrile]
44 | 2300 nM | 6090 nM |  | O=C(c1cc(OCc2ccccc2)nn1-c1ccccn1)N1CCN(c2cccc(Cl)c2)CC1 [Example E61, (5-Benzyloxy-2-pyrid-2-yl-2H-pyrazol-3-yl)[4-(3-chlorophenyl)piperazin-1-yl]methanone]
45 | 2090 nM | 50.2 nM |  | Cc1cc(C(=O)N2CCN(c3cccc(Cl)c3)CC2)n(-c2ccc(F)cc2F)n1 [Example E42, [4-(3-Chlorophenyl)piperazin-1-yl][2-(2,4-difluorophenyl)-5-methyl-2H-pyrazol-3-yl]methanone]
46 | 1000 nM |  |  | NC(=O)c1cccc(N2CCN(C(=O)c3ccnn3-c3ccccc3)CC2)c1 [Example E133, 3-[4-(2-Phenyl-2H-pyrazole-3-carbonyl)piperazin-1-yl]benzamide]
